Results taken from patent publication US20230146455A1, “TREATMENT OF INFLAMMATORY DISEASES WITH PEPTIDES AND PHARMACEUTICAL COMPOSITIONS” (Yuyu Pharma, Inc., priority 2020, published 2023).
“And” between values parts separate entries of the source, which are not always exact repeats. Equal values may be shown once. Where a SMILES comes first, the peptide text is derived from it. [ ]: non-standard residue; d: D form. Hyp = O=C(O)[C@@H]1C[C@@H](O)CN1

Test system: IL-2
Experiment: Example 8 main study Luminex, LPS hPBMCs: IL-2
Type: cell-based, human
Description: Human PBMCs were pretreated with YY-101, YDE-011, YDE-043 or reference compound; Xiidra® at various concentration (ranging from […] to 500 nM) for 2 h before stimulation. An equal volume of 0.5% DMSO was used as a vehicle control. Then, the cells were treated with LPS at 5 ug/ml, which was selected based on the pilot study. The supernatants from treated cells were harvested at 24 h and placed in a 96 well for Luminex cytokine & chemokine profiling using a Luminex 200 multiplex assay (Luminex; R&D system, USA).
The main study arm with triplicate wells per group in a 24-well plate: • 1. Blank • 2. PBMC: 0.5% DMSO • 3. PBMC+LPS (5 ug/ml) • 4. PBMC+YY-101 500 nM • 5. PBMC+YY-101 50 nM • 6. PBMC+YY-101 5 nM • 7. PBMC+YY-101 0.5 nM • 8. PBMC+LPS (5 ug/ml)+Xiidra® 500 nM • 9. PBMC+LPS (5 ug/ml)+Xiidra® 50 nM • 10. PBMC+LPS (5 ug/ml)+Xiidra® 5 nM • 11. PBMC+LPS (5 ug/ml)+Xiidra® 0.5 nM • 12. PBMC+LPS (5 ug/ml)+Xiidra® 0.05 nM • 13. PBMC+LPS (5 ug/ml)+Xiidra® 0.005 nM • 14. PBMC+LPS (5 ug/ml)+YY-101 500 nM • 15. PBMC+LPS (5 ug/ml)+YY-101 50 nM • 16. PBMC+LPS (5 ug/ml)+YY-101 5 nM • 17. PBMC+LPS (5 ug/ml)+YY-101 0.5 nM • 18. PBMC+LPS (5 ug/ml)+YY-101 0.05 nM • 19. PBMC+LPS (5 ug/ml)+YY-101 0.005 nM • 20. PBMC+LPS (5 ug/ml)+YDE-011 500 nM • 21. PBMC+LPS (5 ug/ml)+YDE-011 50 nM • 22. PBMC+LPS (5 ug/ml)+YDE-011 5 nM • 23. PBMC+LPS (5 ug/ml)+YDE-011 0.5 nM • 24. PBMC+LPS (5 ug/ml)+YDE-011 0.05 nM • 25. PBMC+LPS (5 ug/ml)+YDE-011 0.005 nM • 26. PBMC+LPS (5 ug/ml)+YDE-043 500 nM • 27. PBMC+LPS (5 ug/ml)+YDE-043 50 nM • 28. PBMC+LPS (5 ug/ml)+YDE-043 5 nM • 29. PBMC+LPS (5 ug/ml)+YDE-043 0.5 nM • 30. PBMC+LPS (5 ug/ml)+YDE-043 0.05 nM • 31. PBMC+LPS (5 ug/ml)+YDE-043 0.005 nM
Multiplex assay was used to measure 30 cytokines and chemokines. The 1:200 diluted cell supernatant and serial dilution of the standard were dispensed into a 96 well plate at 50 ul/well. Then, the pre-mixed cocktail of antibody-coated magnetic beads was dispensed at 50 ul/well and incubated at room temperature for 2 h in a horizontal orbital microplate shaker at 800±500 rpm. The beads were washed using a magnetic device to prevent loss. The biotin-antibody was dispensed in 50 ul of each well and incubated at room temperature for 1 h in a shaker at 800±500 rpm. After washing, streptavidin-PE was added at 50 ul/well and incubated at room temperature for 30 min in a shaker under the same conditions. Finally, after washing, wash buffer (100 ul/well) was added to the plate and incubated in a shaker for 2 min. The Luminex™ 200 setting were set according to the manufacturer's protocol. The data was calculated with a standard five-parameter logistic nonlinear regression analysis of the data (xPonent software 4.2, USA). Results were presented as concentration (ng/ml or pg/ml).

[1] = PBMC + LPS(5 ug/ml) + compound 0.005 nM, 24 h
[2] = PBMC + LPS(5 ug/ml) + compound 0.05 nM, 24 h
[3] = PBMC + LPS(5 ug/ml) + compound 0.5 nM, 24 h
[4] = PBMC + LPS(5 ug/ml) + compound 5 nM, 24 h
[5] = PBMC + LPS(5 ug/ml) + compound 50 nM, 24 h
[6] = PBMC + LPS(5 ug/ml) + compound 500 nM, 24 h
[7] = PBMC + compound 0.05 uM, no LPS

## CC(C)C[C@H](NC(=O)CNC(=O)[C@H](CC(=O)O)NC(=O)[C@H](CCC(N)=O)NC(=O)CNC(=O)[C@@H]1C[C@@H](O)CN1)C(=O)N[C@@H](C)C(=O)NCC(=O)N1CCC[C@H]1C(=O)N[C@@H](CCCCN)C(=O)O [YY-101] (H-[Hyp]GQDGLAGPK-OH; N-terminus and C-terminus assumed)
[1]
  IL-2 Concentration, individual wells: 2746.7 pg/mL and 2707.7 pg/mL and 2551.7 pg/mL
  IL-2 MFI, individual wells: 64.5 and 64.0 and 62.0
PBMC + LPS(5 ug/ml) + compound 0.005 nM, 24 h, LPS alone Mean 80.5
  IL-2 MFI, Mean: 63.5
PBMC + LPS(5 ug/ml) + compound 0.005 nM, 24 h, LPS alone Mean 3988.7
  IL-2 Concentration, Mean: 2668.7 pg/mL
[2]
  IL-2 Concentration, individual wells: 2785.6 pg/mL and 3174.7 pg/mL and 3058.1 pg/mL
  IL-2 MFI, individual wells: 65.0 and 70.0 and 68.5
PBMC + LPS(5 ug/ml) + compound 0.05 nM, 24 h, LPS alone Mean 80.5
  IL-2 MFI, Mean: 67.8
PBMC + LPS(5 ug/ml) + compound 0.05 nM, 24 h, LPS alone Mean 3988.7
  IL-2 Concentration, Mean: 3006.1 pg/mL
[3]
  IL-2 Concentration, individual wells: 2863.5 pg/mL and 2785.6 pg/mL and 2824.6 pg/mL
  IL-2 MFI, individual wells: 66.0 and 65.0 and 65.5
PBMC + LPS(5 ug/ml) + compound 0.5 nM, 24 h, LPS alone Mean 80.5
  IL-2 MFI, Mean: 65.5
PBMC + LPS(5 ug/ml) + compound 0.5 nM, 24 h, LPS alone Mean 3988.7
  IL-2 Concentration, Mean: 2824.6 pg/mL
[4]
  IL-2 Concentration, individual wells: 2473.6 pg/mL and 2629.7 pg/mL and 2941.4 pg/mL
  IL-2 MFI, individual wells: 61.0 and 63.0 and 67.0
PBMC + LPS(5 ug/ml) + compound 5 nM, 24 h, LPS alone Mean 80.5
  IL-2 MFI, Mean: 63.7
PBMC + LPS(5 ug/ml) + compound 5 nM, 24 h, LPS alone Mean 3988.7
  IL-2 Concentration, Mean: 2681.6 pg/mL
[5]
  IL-2 Concentration, individual wells: 2473.6 pg/mL and 2707.7 pg/mL and 2863.5 pg/mL
  IL-2 MFI, individual wells: 61.0 and 64.0 and 66.0
PBMC + LPS(5 ug/ml) + compound 50 nM, 24 h, LPS alone Mean 80.5
  IL-2 MFI, Mean: 63.7
PBMC + LPS(5 ug/ml) + compound 50 nM, 24 h, LPS alone Mean 3988.7
  IL-2 Concentration, Mean: 2681.6 pg/mL
[6]
  IL-2 Concentration, individual wells: 2707.7 pg/mL and 2863.5 pg/mL and 2551.7 pg/mL
  IL-2 MFI, individual wells: 64.0 and 66.0 and 62.0
PBMC + LPS(5 ug/ml) + compound 500 nM, 24 h, LPS alone Mean 80.5
  IL-2 MFI, Mean: 64.0
PBMC + LPS(5 ug/ml) + compound 500 nM, 24 h, LPS alone Mean 3988.7
  IL-2 Concentration, Mean: 2707.6 pg/mL
PBMC + compound 0.5 nM, no LPS
  IL-2 Concentration, individual wells: 173.5 pg/mL and 337.0 pg/mL
  IL-2 MFI, individual wells: 32.0 and 34.0
PBMC + compound 0.5 nM, no LPS, 0.5% DMSO Mean 30.7
  IL-2 MFI, Mean: 33.0
PBMC + compound 0.5 nM, no LPS, 0.5% DMSO Mean 61.8
  IL-2 Concentration, Mean: 255.2 pg/mL
PBMC + compound 5 nM, no LPS
  IL-2 Concentration, individual wells: 173.5 pg/mL
  IL-2 MFI, individual wells: 32.0
PBMC + compound 5 nM, no LPS, 0.5% DMSO Mean 30.7
  IL-2 MFI, Mean: 32.0
PBMC + compound 5 nM, no LPS, 0.5% DMSO Mean 61.8
  IL-2 Concentration, Mean: 173.5 pg/mL
[7]
  IL-2 Concentration, individual wells: 659.4 pg/mL and 337.0 pg/mL
  IL-2 MFI, individual wells: 38.0 and 34.0
PBMC + compound 0.05 uM, no LPS, 0.5% DMSO Mean 30.7
  IL-2 MFI, Mean: 36.0
PBMC + compound 0.05 uM, no LPS, 0.5% DMSO Mean 61.8
  IL-2 Concentration, Mean: 498.2 pg/mL
PBMC + compound 50 nM, no LPS
  IL-2 Concentration, individual wells: 48.8 pg/mL and 173.5 pg/mL
  IL-2 MFI, individual wells: 30.5 and 32.0
PBMC + compound 50 nM, no LPS, 0.5% DMSO Mean 30.7
  IL-2 MFI, Mean: 31.3
PBMC + compound 50 nM, no LPS, 0.5% DMSO Mean 61.8
  IL-2 Concentration, Mean: 111.2 pg/mL
PBMC + compound 500 nM, no LPS
  IL-2 Concentration, individual wells: 132.3 pg/mL and 255.5 pg/mL
  IL-2 MFI, individual wells: 31.5 and 33.0
PBMC + compound 500 nM, no LPS, 0.5% DMSO Mean 30.7
  IL-2 MFI, Mean: 32.3
PBMC + compound 500 nM, no LPS, 0.5% DMSO Mean 61.8
  IL-2 Concentration, Mean: 193.9 pg/mL
At as low as 5 μM, LPS 5 ug/mL 24 hrs
  LPS-induced IL-2 (in words): significantly reduced
